Source: PubChem BioAssay (NCI)
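At the GI50, growth is halved. TGI: total growth inhibition.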

How the values were obtained:
Test in all cases: NCI-60 cell line screen, 384-well format
EKVX NSCLC = tested on: EKVX NSCLC
SK-MEL-28 melanoma = tested on: SK-MEL-28 melanoma
RXF 393 renal = tested on: RXF 393 renal
OVCAR-8 ovarian = tested on: OVCAR-8 ovarian
NCI-H322M lung = tested on: NCI-H322M lung
SF-539 CNS = tested on: SF-539 CNS
DU-145 prostate = tested on: DU-145 prostate
SK-OV-3 ovarian = tested on: SK-OV-3 ovarian
CAKI-1 renal = tested on: CAKI-1 renal
OVCAR-5 ovarian = tested on: OVCAR-5 ovarian
NCI/ADR-RES ovarian = tested on: NCI/ADR-RES ovarian
MOLT-4 leukemia = tested on: MOLT-4 leukemia
HOP-92 NSCLC = tested on: HOP-92 NSCLC
HT29 colon = tested on: HT29 colon
PC-3 prostate = tested on: PC-3 prostate
T-47D breast = tested on: T-47D breast
MCF7 breast = tested on: MCF7 breast
MDA-MB-231 breast = tested on: MDA-MB-231 breast
SNB-19 CNS = tested on: SNB-19 CNS
M14 melanoma = tested on: M14 melanoma
NCI-H522 lung = tested on: NCI-H522 lung
A549 NSCLC = tested on: A549 NSCLC
HCT-116 colon = tested on: HCT-116 colon
RPMI-8226 leukemia = tested on: RPMI-8226 leukemia
SF-295 CNS = tested on: SF-295 CNS
HOP-62 NSCLC = tested on: HOP-62 NSCLC
SF-268 CNS = tested on: SF-268 CNS
COLO 205 colon = tested on: COLO 205 colon
MDA-MB-435 melanoma = tested on: MDA-MB-435 melanoma
U251 glioblastoma = tested on: U251 glioblastoma
LOX IMVI melanoma = tested on: LOX IMVI melanoma
HL-60(TB) leukemia = tested on: HL-60(TB) leukemia
TK-10 renal = tested on: TK-10 renal
NCI-H226 lung = tested on: NCI-H226 lung
BT-549 breast = tested on: BT-549 breast
SK-MEL-5 melanoma = tested on: SK-MEL-5 melanoma
A498 renal = tested on: A498 renal
SN12C renal = tested on: SN12C renal
MALME-3M melanoma = tested on: MALME-3M melanoma
HS 578T breast = tested on: HS 578T breast
NCI-H460 NSCLC = tested on: NCI-H460 NSCLC
OVCAR-3 ovarian = tested on: OVCAR-3 ovarian
KM12 colon = tested on: KM12 colon
ACHN renal = tested on: ACHN renal
SNB-75 CNS = tested on: SNB-75 CNS
SR leukemia = tested on: SR leukemia
HCT-15 colon = tested on: HCT-15 colon
MDA-MB-468 breast = tested on: MDA-MB-468 breast
OVCAR-4 ovarian = tested on: OVCAR-4 ovarian
NCI-H23 lung = tested on: NCI-H23 lung
IGROV1 ovarian = tested on: IGROV1 ovarian
HCC-2998 colon = tested on: HCC-2998 colon
K-562 leukemia = tested on: K-562 leukemia
UACC-257 melanoma = tested on: UACC-257 melanoma
786-0 renal = tested on: 786-0 renal
UO-31 renal = tested on: UO-31 renal

## O=C(/C=C/c1cccnc1)NCCCCC1CCN(C(=O)c2ccccc2)CC1
EKVX NSCLC
  GI50: < 10 nM
  TGI: < 10 nM
SK-MEL-28 melanoma
  GI50: < 10 nM
  TGI: < 10 nM
RXF 393 renal
  GI50: < 10 nM
  TGI: < 10 nM
OVCAR-8 ovarian
  GI50: < 10 nM
  TGI: < 10 nM
NCI-H322M lung
  GI50: < 10 nM
  TGI: < 10 nM
SF-539 CNS
  GI50: < 10 nM
  TGI: < 10 nM
DU-145 prostate
  GI50: < 10 nM
  TGI: < 10 nM
SK-OV-3 ovarian
  GI50: < 10 nM
  TGI: < 10 nM
CAKI-1 renal
  GI50: < 10 nM
  TGI: < 10 nM
OVCAR-5 ovarian
  GI50: < 10 nM
  TGI: < 10 nM
NCI/ADR-RES ovarian
  GI50: < 10 nM
  TGI: < 10 nM
MOLT-4 leukemia
  GI50: < 10 nM
  TGI: < 10 nM
HOP-92 NSCLC
  GI50: < 10 nM
  TGI: 24 nM
HT29 colon
  GI50: < 10 nM
  TGI: < 10 nM
PC-3 prostate
  GI50: < 10 nM
  TGI: < 10 nM
T-47D breast
  GI50: < 10 nM
  TGI: < 10 nM
MCF7 breast
  GI50: < 10 nM
  TGI: < 10 nM
MDA-MB-231 breast
  GI50: < 10 nM
  TGI: < 10 nM
SNB-19 CNS
  GI50: < 10 nM
  TGI: < 10 nM
M14 melanoma
  GI50: < 10 nM
  TGI: < 10 nM
NCI-H522 lung
  GI50: < 10 nM
  TGI: < 10 nM
A549 NSCLC
  GI50: < 10 nM
  TGI: 10.8 nM
HCT-116 colon
  GI50: < 10 nM
  TGI: < 10 nM
RPMI-8226 leukemia
  GI50: < 10 nM
  TGI: < 10 nM
SF-295 CNS
  GI50: < 10 nM
  TGI: < 10 nM
HOP-62 NSCLC
  GI50: < 10 nM
  TGI: < 10 nM
SF-268 CNS
  GI50: < 10 nM
  TGI: < 10 nM
COLO 205 colon
  GI50: < 10 nM
  TGI: < 10 nM
MDA-MB-435 melanoma
  GI50: < 10 nM
  TGI: < 10 nM
U251 glioblastoma
  GI50: < 10 nM
  TGI: < 10 nM
LOX IMVI melanoma
  GI50: < 10 nM
  TGI: < 10 nM
HL-60(TB) leukemia
  GI50: < 10 nM
  TGI: < 10 nM
TK-10 renal
  GI50: < 10 nM
  TGI: < 10 nM
NCI-H226 lung
  GI50: 60.2 nM
  TGI: > 100000 nM
BT-549 breast
  GI50: < 10 nM
  TGI: < 10 nM
SK-MEL-5 melanoma
  GI50: < 10 nM
  TGI: < 10 nM
A498 renal
  GI50: 16.9 nM
  TGI: 67.9 nM
SN12C renal
  GI50: < 10 nM
  TGI: < 10 nM
MALME-3M melanoma
  GI50: < 10 nM
  TGI: 13.9 nM
HS 578T breast
  GI50: < 10 nM
  TGI: < 10 nM
NCI-H460 NSCLC
  GI50: < 10 nM
  TGI: 11.7 nM
OVCAR-3 ovarian
  GI50: < 10 nM
  TGI: < 10 nM
KM12 colon
  GI50: < 10 nM
  TGI: < 10 nM
ACHN renal
  GI50: < 10 nM
  TGI: < 10 nM
SNB-75 CNS
  GI50: < 10 nM
  TGI: < 10 nM
SR leukemia
  GI50: < 10 nM
  TGI: < 10 nM
HCT-15 colon
  GI50: < 10 nM
  TGI: < 10 nM
MDA-MB-468 breast
  GI50: < 10 nM
  TGI: < 10 nM
OVCAR-4 ovarian
  GI50: < 10 nM
  TGI: < 10 nM
NCI-H23 lung
  GI50: < 10 nM
  TGI: < 10 nM
IGROV1 ovarian
  GI50: < 10 nM
  TGI: < 10 nM
HCC-2998 colon
  GI50: < 10 nM
  TGI: < 10 nM

## Cc1c(C#N)cccc1-c1cc(-c2cn(Cc3cccc(C(C)(C)O)n3)nn2)nc(N)n1
EKVX NSCLC
  GI50: 32100 nM
  TGI: > 100000 nM
K-562 leukemia
  GI50: 25300 nM
  TGI: > 100000 nM
SK-OV-3 ovarian
  GI50: 33800 nM
  TGI: > 100000 nM
NCI/ADR-RES ovarian
  GI50: 17500 nM
  TGI: 44500 nM
HT29 colon
  GI50: 41100 nM
  TGI: > 100000 nM
PC-3 prostate
  GI50: 29900 nM
  TGI: > 100000 nM
T-47D breast
  GI50: 15200 nM
  TGI: 50900 nM
UACC-257 melanoma
  GI50: 25700 nM
  TGI: 79000 nM
MDA-MB-231 breast
  GI50: 30500 nM
  TGI: > 100000 nM
M14 melanoma
  GI50: 57800 nM
  TGI: > 100000 nM
NCI-H522 lung
  GI50: 18300 nM
  TGI: 62400 nM
RPMI-8226 leukemia
  GI50: 14900 nM
  TGI: 31500 nM
SF-295 CNS
  GI50: 25600 nM
  TGI: 95800 nM
MDA-MB-435 melanoma
  GI50: 36000 nM
  TGI: > 100000 nM
TK-10 renal
  GI50: 24000 nM
  TGI: 96300 nM
MALME-3M melanoma
  GI50: 25200 nM
  TGI: 96400 nM
786-0 renal
  GI50: 38200 nM
  TGI: > 100000 nM
KM12 colon
  GI50: 334 nM
  TGI: > 100000 nM
SNB-75 CNS
  GI50: 53200 nM
  TGI: > 100000 nM
MDA-MB-468 breast
  GI50: 368 nM
  TGI: 28700 nM
UO-31 renal
  GI50: 19000 nM
  TGI: 62500 nM
